# According to PMC7884679 (British Journal of Cancer, 2020):
# “Also recorded” adds a separate entry of the source.
# Key:
# PI3K lipid kinases = tested on: PI3K lipid kinases; set-up: method as in PMID 32220971; conditions: cited from earlier work
# [1] = tested on: repair of radiation- or chemotherapy-induced DNA DSBs; conditions: preclinical studies ref 6–10; cited from earlier work
# clinical = conditions: human, in vivo; for AUC(0-t): AUC0–12; for AUC(0-inf): AUC0–∞; for Vd/F: Vz/f
# Procedure: (§1) Safety was assessed through the recording, reporting and analysis of baseline medical conditions, AEs, physical examination findings (including vital signs and monitoring for bleeding), laboratory tests, ECOG PS and 12-lead electrocardiograms. […] PK was assessed using blood samples collected pre-treatment and on-treatment. […] Tumour response was evaluated according to RECIST (v1.1). Target and non-target lesions were measured by computed tomography or magnetic resonance imaging every 6 weeks.
# The cut-off for the final analysis was when the last patient completed the dose-escalation phase (29 June 2017). The All Patients Analysis Set comprised all patients who provided informed consent (screening failures plus enrolled patients) and was used to describe patient disposition and deaths. […] The Efficacy Analysis Set, including patients who received at least one treatment dose, was used for all efficacy summaries. […] The Biomarker/Pharmacogenomics Analysis Set included patients who received at least the first dose of study drug and provided at least one pre-dose sample and one post-dose sample.
# DNA-PK = conditions: preclinical ref 6–8; cited from earlier work
# platelet aggregation = conditions: preclinical data; cited from earlier work
# advanced solid tumours = assay: Tumour response by RECIST v1.1; type: in vivo, human
# Procedure: as §1
# (§2) TEAEs were summarised according to Medical Dictionary for Regulatory Activities (v20.0) preferred term and system organ class. All statistical analyses (except for PK) were performed using SAS 9.1.3 or higher. Tumour assessments, based on investigator evaluations of target, non-target and new lesions according to RECIST (v1.1), were used to derive the best overall response. Trial data were summarised by dose level.
# human cyclooxygenase 1 = target: T1, human cyclooxygenase 1 (Homo sapiens, UniProt P23219); assay: Platelet aggregation in aspirin-naïve patients at the RP2D; type: in vivo; conditions: aspirin-naïve cohort, 400 mg BID
# T1 construct: endogenous in cells; host or cells: platelets of aspirin-naïve patients treated at the RP2D
# [2] = tested on: patients with advanced solid tumours; assay: Safety and tolerability: treatment-emergent adverse events (CTCAE v4.03); type: in vivo
# Procedure: (§3) In addition, a DLT could be identified by the SMC as any TEAE that impaired daily function or abnormality occurring in patients treated with peposertib at any time during the dose escalation part of the study.
# as §1, §2
# [3] = tested on: patients with advanced solid tumours; assay: Dose escalation 3 + 3: DLT, MTD, RP2D; type: in vivo
# Excerpt: Dose escalation was by use of a standard ‘3 + 3’ design, based on the presence/absence of dose-limiting toxicities (DLTs). […] The starting dose was considered to have acceptable safety and to be in the range of the biologically active dose based on in vivo pharmacology data.[7]
# The MTD was defined as the dose level below the dose at which two out of six patients experienced a DLT. Once the MTD was established, the RP2D was to be defined by the Safety Monitoring Committee (SMC), either at the MTD level or below, depending on the available safety, efficacy, PK and PD data.
# as §3
# phosphorylation of AKT = tested on: phosphorylation of AKT; set-up: method as in PMID 32220971; conditions: preclinical experiments ref 8; cited from earlier work
# T1 sequence (P23219 24-599): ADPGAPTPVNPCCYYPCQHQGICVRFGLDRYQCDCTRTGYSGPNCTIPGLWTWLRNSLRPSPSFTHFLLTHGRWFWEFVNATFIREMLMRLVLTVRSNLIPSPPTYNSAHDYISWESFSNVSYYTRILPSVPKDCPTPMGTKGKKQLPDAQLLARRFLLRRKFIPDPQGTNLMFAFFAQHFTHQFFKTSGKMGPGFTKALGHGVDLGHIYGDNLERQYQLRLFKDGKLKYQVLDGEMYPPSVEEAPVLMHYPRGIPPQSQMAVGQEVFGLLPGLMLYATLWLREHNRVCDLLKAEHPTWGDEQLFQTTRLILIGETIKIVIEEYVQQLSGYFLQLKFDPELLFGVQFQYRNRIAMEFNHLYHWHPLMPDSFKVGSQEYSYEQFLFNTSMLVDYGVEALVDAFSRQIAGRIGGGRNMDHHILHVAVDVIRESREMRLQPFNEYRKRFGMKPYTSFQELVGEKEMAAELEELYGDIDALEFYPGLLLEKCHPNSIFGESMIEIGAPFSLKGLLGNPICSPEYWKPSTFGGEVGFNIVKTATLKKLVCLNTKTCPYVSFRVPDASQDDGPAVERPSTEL
structure (smiles),measurement,setting,value
"COc1ccc([C@@H](O)c2cc(-c3ncnc4cc(N5CCOCC5)ccc34)c(F)cc2Cl)nn1 [Peposertib, peposertib]",potency on PI3K lipid kinases,"PI3K lipid kinases; compared with DNA-PK, preclinical studies ref 8",significantly lower potency
same,potency against DNA-PK versus other PI3K and PI3K-related family members,PI3K lipid kinases; preclinical ref 8,substantially greater
same,"synergy with radiotherapy and DSB-inducing chemotherapies (e.g. etoposide, doxorubicin)",[1],demonstrated synergy
same,Tmax,clinical,1.5 h
same,geometric mean percent coefficient of variation (%CV) for Cmax,clinical,15.5–117%
same,AUC(0-t),clinical; 100 mg,2.29 µg·h/mL
same,AUC(0-inf),clinical; 100 mg,2.92 µg·h/mL
same,Cmax,clinical; 100 mg,0.44 µg/mL
same,Vd/F,clinical; 100 mg,276 L
same,half-life,"clinical; 100 mg, t1/2",5.5 h
same,Tmax,"clinical; 100 mg, tmax",1.8 h
same,AUC(0-t),clinical; 150 mg,3.04 µg·h/mL
same,AUC(0-inf),clinical; 150 mg,3.77 µg·h/mL
same,Cmax,clinical; 150 mg,0.695 µg/mL
same,Vd/F,clinical; 150 mg,304 L
same,half-life,"clinical; 150 mg, t1/2",5.1 h
same,Tmax,"clinical; 200 mg, tmax",1.4 h
same,Vd/F,clinical; 300 mg,662 L
same,half-life,"clinical; 300 mg, t1/2",4.7 h
same,Tmax,"clinical; 300 mg, tmax",1.9 h
same,AUC(0-inf),clinical; 400 mg,4.14 µg·h/mL
same,Tmax,"clinical; 400 mg, tmax",2.4 h
same,half-life,clinical; mean elimination half-life,~5.5 h
same,Tmax,"clinical; po, median tmax",1.1 to 2.5 h
same,concentrations blocking DNA-PK kinase activity,DNA-PK,sub-nanomolar
same,inhibition of platelet aggregation,platelet aggregation,reversible inhibition of platelet aggregation at micromolar concentrations
same,patients with stable disease for ≥12 weeks,advanced solid tumours; RECIST v1.1,seven
same,objective tumour responses (complete or partial),"advanced solid tumours; RECIST v1.1, all doses",No objective tumour responses
same,duration of stable disease,"advanced solid tumours; one patient, metastatic hepatocellular carcinoma, prior progression on sorafenib, at data cut-off",69 weeks
same,patients not evaluable,advanced solid tumours; tumour assessment at screening only,16%
same,time remained on treatment,"advanced solid tumours; two patients (metastatic renal cell carcinoma; tonsillar squamous cell carcinoma), 400 mg BID",36 weeks
same,effect on platelet aggregation,human cyclooxygenase 1,very weak effect; also recorded: only a weak effect
same,Number of patients with: Any TEAE leading to death,[2]; 100/QD n = 3,0 (0) n (%)
same,Number of patients with: Any peposertib related TEAE leading to death,[2]; 100/QD n = 3,0 (0) n (%)
same,Number of patients with: Any TEAE leading to death,[2]; 150/BID n = 3,0 (0) n (%)
same,Number of patients with: Any peposertib related TEAE leading to death,[2]; 150/BID n = 3,0 (0) n (%)
same,Number of patients with: Any TEAE leading to death,[2]; 200/BID n = 3,0 (0) n (%)
same,Number of patients with: Any peposertib related TEAE leading to death,[2]; 200/BID n = 3,0 (0) n (%)
same,Number of patients with: Any TEAE leading to death,[2]; 200/QD n = 3,0 (0) n (%)
same,Number of patients with: Any peposertib related TEAE leading to death,[2]; 200/QD n = 3,0 (0) n (%)
same,Number of patients with: Any TEAE leading to death,[2]; 300/BID n = 9,0 (0) n (%)
same,Number of patients with: Any peposertib related TEAE leading to death,[2]; 300/BID n = 9,0 (0) n (%)
same,Number of patients with: Any TEAE leading to death,[2]; 400/BID (RP2D) n = 6,0 (0) n (%)
same,Number of patients with: Any peposertib related TEAE leading to death,[2]; 400/BID (RP2D) n = 6,0 (0) n (%)
same,Number of patients with: Any TEAE leading to death,[2]; 400/BID n = 4,1 (25) n (%)
same,Number of patients with: Any peposertib related TEAE leading to death,[2]; 400/BID n = 4,0 (0) n (%)
same,Number of patients with: Any TEAE leading to death,[2]; Total N = 31,1 (3) n (%)
same,Number of patients with: Any peposertib related TEAE leading to death,[2]; Total N = 31,0 (0) n (%)
same,"Grade 3 peposertib-related maculo-papular rash, patients","[2]; human, in vivo",4 n
same,"Grade 3 peposertib-related nausea, patients","[2]; human, in vivo",2 n
same,Number of patients with: Any peposertib-related Grade ≥4 TEAE,"[2]; human, in vivo",0 (0) n (%)
same,"TEAE constipation, patients","[2]; human, in vivo",10 n
same,"TEAE fatigue, patients","[2]; human, in vivo",14 n
same,"TEAE nausea, patients","[2]; human, in vivo",17 n
same,"TEAE pyrexia, patients","[2]; human, in vivo",11 n
same,"Treatment-related TEAE: Constipation, Grade 3","[2]; human, in vivo",0 (0) n (%)
same,"Treatment-related TEAE: Decreased appetite, Grade 3","[2]; human, in vivo",0 (0) n (%)
same,"Treatment-related TEAE: Diarrhoea, Grade 3","[2]; human, in vivo",0 (0) n (%)
same,"Treatment-related TEAE: Dry mouth, Grade 3","[2]; human, in vivo",0 (0) n (%)
same,"Treatment-related TEAE: Periorbital oedema, Grade 3","[2]; human, in vivo",0 (0) n (%)
same,"Treatment-related TEAE: Vomiting, Grade 3","[2]; human, in vivo",0 (0) n (%)
same,patients with a serious TEAE,"[2]; human, in vivo",55%
same,patients with at least one TEAE,"[2]; human, in vivo",31 patients
same,patients with at least one TEAE of Grade ≥3,"[2]; human, in vivo",68%
same,patients with peposertib-related Grade 3 TEAEs,"[2]; human, in vivo",23%
same,peposertib-related Grade 4 TEAEs,"[2]; human, in vivo",no peposertib-related Grade 4 TEAEs
same,deaths considered treatment-related,[2]; three patients died due to disease progression,None
same,maximum-tolerated dose (MTD),[3]; dose escalation up to 400 mg BID,not reached
same,recommended phase 2 dose (RP2D),"[3]; human, in vivo, 21 days",400 mg BID
same,inhibition of the phosphorylation of AKT,phosphorylation of AKT,only moderate inhibition
